Source: patent US11446265B2, “Reagents, compositions and methods for improving viability and function of cells, tissues and organs” (TARGA BIOMEDICAL, priority 2016, dated 2022)

Columns and labels:
[1] = test system: human mesenchymal stem cells (hMSC); assay: mRNA expression in hMSC by real-time PCR; format: cell-based; details: FIGS. 25A, 25B, 26A to 26D
Excerpt: FIG. 25A is a table representing mRNA expression of selected genes measured by real-time PCR in human mesenchymal stem cells (hMSC) conditioned with Celastrol alone or in combination with selected adjunct agents. Results are expressed as fold change versus Vehicle-treated cells.
FIG. 25B is a table representing mRNA expression of selected genes measured by real-time PCR in human mesenchymal stem cells (hMSC) conditioned with selected Celastrol analogs alone or in combination with selected adjunct agents. Results are expressed as fold change versus Vehicle-treated cells.
Results are expressed as fold change versus Vehicle-treated cells. (Arbitrary angiogenic index: (VEGFa+FGF2+SDF1)*2) (A=Additive effect; S=Synergistic effect).
(§1) To test the second main condition, MSCs were treated with the candidate pharmaco-optimizers for 1 hour, followed by 3 hours washout period. Cell mRNA was extracted and expression of genes of interest was quantified by real time PCR. In additional MSC cultures, cells were treated for one hour, washed and cultured in low serum media for 24 hours. The media containing paracrine factors secreted by MSCs was then placed in contact with H9c2 cardiomyoblast cell line. H9c2 cells were then submitted to the hypoxia/serum starvation (<1% O2 in hypoxia chamber in low serum media for 48 hours) or oxidative stress (incubation in media for 1 hour spiked with 0-1 mM H2O2). Viability status of H9c2 cells was evaluated using the LIVE/DEAD assay as detailed above.

[2] = test system: H9c2 cardiomyoblasts; assay: H9c2 viability under hypoxia/serum starvation (LIVE/DEAD); format: cell-based, rat; details: 1 uM
Procedure: For survival to hypoxic challenge and oxidative challenge, H9c2 cardiomyoblasts are submitted to the hypoxia/serum starvation (<1% O2 in hypoxia chamber in low serum media for 48 hours) or oxidative stress (incubation in media for 1 hour spiked with 0-1 mM H2O2). Viability status of H9c2 cells was evaluated using the LIVE/DEAD assay.

[3] = test system: H9c2 cardiomyoblasts; assay: H9c2 viability under hypoxia/reoxygenation stress; format: cell-based, rat; details: 1 uM
Procedure: Next, the hypoxia/reoxygenation challenge is performed. Briefly, viability analysis was performed in rat H9c2 cardiomyoblasts as previously reported. For hypoxia/reoxygenation stress, cells were cultured in DMEM no glucose (Life Technologies), serum starved and placed in hypoxic conditions (<1% O2) for 18 h. At reoxygenation (normoxic conditions), cells were treated with Celastrol (10^−10 to 10^−6 mol/L, Cayman Chemical, Ann Arbor, Mich.), Celastrol analogs or vehicle (Dimethyl sulfoxide (DMSO), Sigma-Aldrich Canada, Oakville, ON; final concentration<1% v/v) in DMEM high glucose 1% FBS for 1 h, then reoxygenation was continued in DMEM high glucose for an additional 5 h.

[4] = test system: isolated perfused heart; design: species or system rat
[5] = Rat myocardial ischemia/reperfusion in vivo, echocardiography at 24 h; details: 1 mg/Kg intraventricular, vs Vehicle
Procedure: Rats were randomly assigned to the following groups: Sham (n=6), Vehicle (n=8), Celastrol 1 mg/Kg (n=6) or Celastrol analogs. Under 2% isoflurane anesthesia, baseline echocardiography using a Sonos 5500 Imaging System (Philips, Philips Healthcare, Andover, Mass., USA) with a 12 MHz transducer was performed as described^12. All measures were acquired by the same experienced observer, blinded to the treatment. For each measurement, three to five cardiac cycles were analysed and averaged.
After echocardiography, the animal was intubated and mechanically ventilated, then bupivacaine 2 mg/kg was injected, and a left thoracotomy was performed, exposing the heart. Using a 5-0 silk slipknot, an occlusion of the left anterior descending coronary artery was performed. Visual blanching and electrocardiographic changes confirmed myocardial ischemia. In Sham animals, suture was not ligated. After 30 minutes, the suture occlusion was released. Celastrol, Celastrol analogs or vehicle was injected intraventricularly for acute systemic delivery, then the chest was closed. Buprenorfine (0.05 mg/Kg sc) and carprofen (5 mg/Kg sc) were injected at the end of surgery. Animals were left to recuperate for 24 h, then a second echocardiography was performed. Animals were sacrificed, cardiac tissue was snap frozen, and blood was collected in heparinized tubes, then centrifuged at 4° C. Plasma was collected, snap frozen and kept at −80° C. until analysis.

[6] = test system: heat shock response (HSR); assay: Heat shock response luciferase reporter assay in H9c2; format: cell-based, rat; details: H9c2, 10E-5 to 10E-10M, 4 hours, 3 hours washout
Procedure: (§2) H9c2 rat cardiomyoblasts were seeded at a density of 5,000 cells per well in 96 well plates in DMEM 10% FBS complete medium and transfected using lipofectamine with the Cignal Reporter Assay Heat shock response and Antioxidant response kits (SABiosciences, Qiagen) according to the manufacturers' protocol.

[7] = test system: antioxidant responsive elements (ARE); assay: Antioxidant response luciferase reporter assay in H9c2; format: cell-based, rat; details: H9c2, 10E-5 to 10E-10M, 4 hours, 3 hours washout
Procedure: as §2

[8] = test system: human MSCs; assay: Screen of compounds for viability of human MSCs under hypoxic stress; format: cell-based; details: FIG. 1
Procedure: In an attempt to identify conditioning compounds that are able to ensure in vivo cellular viability, based on preliminary evidence using Celastrol, over a dozen compounds with structural similarities identified through literature and the Sigma-Aldrich® Structure Search online tool, were screened. The compounds' capacity to improve viability of human MSCs challenged to hypoxic stress was measured. The molecules that were screened, most of which are natural compounds, can be classified as triterpenoids, limonoids, withanolides, sterols, isoprenoides/ diterpenes and flavonoids. Classical HSP90 inhibitors were also added to the screen, such as Radicicol that directly target the ATP binding pocket at the NT region of HSP90^9 (NT inhibitor). […] 28; 42(2):260-6.^10Patwardhan C. A. et al., J Biol Chem. 2013 Mar. 8; 288(10):7313-25.^11Sreeramulu S. et al., Angew Chem Int Ed Engl. 2009; 48(32):5853-5.^12Gu M., et al. Invest New Drugs. 2014 Feb.;32(1):68-74.

[9] = test system: rat mesenchymal stem cells (rMSC); assay: rMSC viability after hypoxia/serum starvation (LIVE/DEAD); format: cell-based; details: 1-hour treatment, compound alone
Procedure: (§3) To test the first main condition, MSCs (either sourced from rat or humans) were treated with the candidate pharmaco-optimizers, washed and submitted to hypoxia/serum starvation (<1% O2 in hypoxia chamber in low serum media for 48-72 hours) or oxidative stress (incubation in media for 1 hour spiked with 0-2 mM H2O2), which mimic the major lethal stressors present in the ischemic transplant microenvironment. Viability status of cells are assessed using the LIVE/DEAD viability/cytotoxicity kit (Life Technologies™) and results are quantified by Operetta high content screening (HCS) apparatus equipped with Harmony automated analysis software (Perkin Elmer™).

[10] = test system: H9c2 cardiomyoblast cell line; assay: H9c2 viability in hypoxia after pre-conditioning with media from treated rMSC (paracrine); format: cell-based, rat; details: 48-hour pre-conditioning with media from treated rMSC; Gedunin high dose
Procedure: as §1

[11] = test system: rat mesenchymal stem cells (rMSC); assay: rMSC viability after oxidative stress (H2O2, LIVE/DEAD); format: cell-based; details: 1-hour treatment, compound alone
Procedure: as §3

[12] = test system: H9c2 cells; assay: H9c2 viability in oxidative stress after pre-conditioning with media from treated rMSC (paracrine); format: cell-based, rat; details: 24-hour preconditioning with media from treated rMSC
Procedure: as §1

[13] = test system: rat mesenchymal stem cells (rMSC); assay: mRNA expression in rMSC by real time PCR; format: cell-based; details: rMSC, 1-hour treatment and 3-hour washout, co-treatment with EGCG or tBHQ
Procedure: as §1
Combination Treatments Tested—First Experiment: Celastrol (1 μM) or Gedunin (1 μM)+EGCG (1 μM, 10 μM) or TBHQ (1 μM, 5 μM)

[14] = 10^−8 mol/L dose, vs Vehicle (DMSO)

Question: With CC1=C(O)C(=O)C=C2C1=CC=C1[C@@]2(C)CC[C@@]2(C)[C@@H]3C[C@](C)(C(N)=O)CC[C@]3(C)CC[C@]12C [Analog 1] as the molecule, how does the “ranking as HSP90 inhibitor from expression of HSPs, growth factors, antioxidant proteins/enzymes, cytokines, matrix remodeling proteins” value [1] read?
Answer: best HSP90 inhibitors

Question: And the “protection of H9c2 cardiomyoblasts from hypoxia” value [2]?
Answer: effective

Question: And the “protection of H9c2 cardiomyoblasts from hypoxia/reoxygenation stress” value [3]?
Answer: effective

Question: And the “infarct area measured by TTC stain” value [4]?
Answer: significantly reduced

Question: What about the “Coronary reserve flow (CRF)” value [4, 14] of the same molecule?
Answer: preserved

Question: What about the “I/R-induced systolic dysfunction (+/−dP/dt, generated pressure, EDP, contractility index)” value [4, 14] of the same molecule?
Answer: protected the heart from I/R-induced systolic dysfunction

Question: What about the “high sensitivity troponin T (TNT-hs) release” value [4, 14] of the same molecule?
Answer: significantly reduced

Question: And the “cardiac output (CO) following I/R injury” value [5]?
Answer: preserving

Question: What about the “ejection fraction (EF) following I/R injury” value [5] of the same molecule?
Answer: preserving

Question: And the “fractional shortening (FS) following I/R injury” value [5]?
Answer: preserving

Question: What about the “stroke volume (SV) following I/R injury” value [5] of the same molecule?
Answer: preserving

Question: What about the “stimulation of reporter gene controlled by heat shock responsive elements (HSR)” value [6] of the same molecule?
Answer: among the most potent and efficient compounds tested

Question: What about the “stimulation of reporter gene controlled by antioxidant responsive elements (ARE)” value [7] of the same molecule?
Answer: among the most potent and efficient compounds tested

Question: What does the source list for CC1=C(O)C(=O)C=C2C1=CC=C1[C@@]2(C)CC[C@@]2(C)[C@@H]3C[C@](C)(C(=O)NCCO)CC[C@]3(C)CC[C@]12C [Analog 3]?
Answer: ranking as HSP90 inhibitor from expression of HSPs, growth factors, antioxidant proteins/enzymes, cytokines, matrix remodeling proteins [1]: best HSP90 inhibitors; protection of H9c2 cardiomyoblasts from hypoxia [2]: effective; protection of H9c2 cardiomyoblasts from hypoxia/reoxygenation stress [3]: effective; stimulation of reporter gene controlled by heat shock responsive elements (HSR) [6]: among the most potent and efficient compounds tested; stimulation of reporter gene controlled by antioxidant responsive elements (ARE) [7]: among the most potent and efficient compounds tested

Question: With CC1=C(O)C(=O)C=C2C1=CC=C1[C@@]2(C)CC[C@@]2(C)[C@@H]3C[C@](C)(C(=O)NO)CC[C@]3(C)CC[C@]12C [Analog 4] as the molecule, how does the “protection of H9c2 cardiomyoblasts from hypoxia” value [2] read?
Answer: effective

Question: What about the “protection of H9c2 cardiomyoblasts from hypoxia/reoxygenation stress” value [3] of the same molecule?
Answer: effective

Question: What about the “stimulation of reporter gene controlled by heat shock responsive elements (HSR)” value [6] of the same molecule?
Answer: among the most potent and efficient compounds tested

Question: What about the “stimulation of reporter gene controlled by antioxidant responsive elements (ARE)” value [7] of the same molecule?
Answer: among the most potent and efficient compounds tested

Question: Which results are given for CC(=O)O[C@@H]1C[C@H]2C(C)(C)C(=O)C=C[C@]2(C)[C@H]2CC[C@@]3(C)[C@H](c4ccoc4)OC(=O)[C@H]4O[C@]43[C@@]21C [Gedunin]?
Answer: capacity to improve viability of human MSCs challenged to hypoxic stress [8]: top scoring; protection of rMSCs from 48-hour hypoxia induced cell death [9]: protect; protection of H9c2 from 48-hour hypoxia-induced cell death (paracrine) [10]: protects; protection of rMSCs from oxidative stress induced death [11]: protect treated cells from oxidative stress-induced death; protection of H9c2 cells from oxidative stress induced death (paracrine) [12]: protects; IL-1β mRNA expression induced by EGCG and tBHQ [13]: downregulate

Question: Which results are given for C[C@@H]1C[C@H]2O[C@@H]2/C=C\C=C\C(=O)Cc2c(Cl)c(O)cc(O)c2C(=O)O1 [Radicicol]?
Answer: protection of rMSCs from 48-hour hypoxia induced cell death [9]: protect; protection of H9c2 from 48-hour hypoxia-induced cell death (paracrine) [10]: does not produce a mediator for paracrine efficacy; protection of rMSCs from oxidative stress induced death [11]: not; protection of H9c2 cells from oxidative stress induced death (paracrine) [12]: no protection
